The source of these data is patent EP3958980B1, “TARGETED NOVEL TRIAZOLOTHIADIAZINE DERIVATIVES FOR THE TREATMENT OF LUNG CANCER” (Anadolu Universitesi, priority 2020, dated 2021).

Assay [1] has as its system kidney cancer (OU-31) cell line. Further details: concentration or dose not given beside the values. To be noted: cited from earlier work.
The subject of another assay is A549 cells. The note with it: cited from earlier work.
Assay [2] concerns human colon epithelial (HT-29) cells. The note with it: cited from earlier work.
For assay [3], the system named is kidney fibroblast (BHK-21) cells. To be noted: cited from earlier work.
The subject of assay [4] is hepatocellular carcinoma (Hep3 B), human breast adenocarcinoma (MCF-7), human cervical carcinoma (HeLa). To be noted: against all tested cancer cells; cited from earlier work.
The subject of assay [5] is CCD-19Lu normal lung fibroblast cells. As to the kind of experiment: MTT assay, in vitro cytotoxic activity on CCD-19Lu. It counts as cell-based. To be noted: 24 hour incubation; for IC50: Homo sapiens, CCD 19Lu, read-out: IC50 values (µg/mL) CCDLul9 cell line. How it is done: (§1) The in vitro cytotoxic effects of the compounds were determined with the MTT assay. For this purpose, MTT test was performed using A549 and CCD-19Lu cell lines. After the cell lines used in the invention were centrifuged following taking them out from liquid nitrogen (-196 °C), the cells were cultured in a CO2 incubator comprising 5% CO2 at 37 °C in flasks containing 10% fetal bovine serum (FBS), where CCD-19Lu cells were cultured with Dulbecco's Modified Eagle's Medium (DMEM) and A549 cells were cultured with Roswell Park Memorial Institute (RPMI). The cells that reach the sufficient number for the assay, were seeded to 96 well plates such that 2×10^3 cells were placed in each well and at the same time, components at concentrations of 1-500 µg/mL were added to cells and they were incubated at 37 °C. At the end of the 24 hour incubation period, the MTT powder (5 mg/mL in 1 × phosphate buffered saline (PBS)) was added to each well (20 µL). After a 2-4 h period under the same conditions, the medium was removed from the plate and 100 µL of DMSO was added to each well to dissolve the dye and kept for 10 minutes. Then the plates were read at a wavelength of 540 nm using ELx808-IU Bio-Tek plate reader. The control cell viability which was not treated with the components was accepted to be 100% and the viability rates of the cells were expressed as %. […] According to the results obtained, the dose range was extended until the IC50 value was determined.
MTT assay is a frequently used method which measures the cytotoxic effects of the compounds on the cells by converting the yellow colored MTT stain into purple colored formazan crystals via the mitochondrial succinate dehydrogenase activity. In the cytotoxic activity tests of the compounds, A549 lung adenocarcinoma and CCDLu19 normal lung fibroblast cell lines were used.

For assay [6], the system named is A549 human lung adenocarcinoma cells. As to the kind of experiment: MTT assay, in vitro cytotoxic activity on A549. It counts as cell-based. The note with it: Homo sapiens, A549, 24 hour incubation, read-out: IC50 values (µg/mL) A549 cell line. As to the method: as §1, with “determined. MTT assay is a frequently used method which measures the cytotoxic effects of the compounds on the cells by converting the yellow colored MTT stain into purple colored formazan crystals via the mitochondrial succinate dehydrogenase activity. In the cytotoxic activity tests of the compounds, A549 lung adenocarcinoma and CCDLu19 normal lung fibroblast cell lines were used.” for “determined.”

Another assay concerns Akt. As to the kind of experiment: Akt colorimetric in cell ELISA in A549 cells. It counts as cell-based, human. The note with it: 24 hours. How it is done: After 10.000 cells were seeded in the wells, they were kept in the incubator for 24 hours. […] Briefly, the medium was removed from the wells and 100 µL of 4% formaldehyde was added. The plate was incubated in a fume hood for 15 minutes. Formaldehyde was removed and the plate was washed twice with 1X […] (TBS) such as to be 100 µL/well. 1X TBS was removed and 100 µL 1X permeabilization solution was added to each well and it was kept at room temperature for 15 minutes. After the 1X permeabilization solution was removed, the wells were washed with 100 µL 1X TBS once. 1X TBS was removed and 100 µL quenching solution was added to each well and it was kept at room temperature for 20 minutes. Afterwards, this solution was removed. The plate was washed 1 time with 1X TBS and 100 µL blocking solution was added to the wells and it was kept at room temperature for 30 minutes. At the end of this period, the blocking solution was removed and 50 µL primary antibody was added to the wells. The plate was sealed with a cover and it was incubated overnight at 4 °C. The primary antibody was removed and the plate wells were washed 3 times with 100 µL 1X washing solution. After the washing solution was removed, 100 µL diluted horseradish peroxidase (HRP) conjugate was added and it was incubated at room temperature for 30 minutes. Later on this conjugate was removed and 100 µL 3,3',5,5'-tetramethylbenzidine (TMB) […] was added to each well and the absorbance values were read at 450 nm for 30 minutes. The experiment was carried out in triplicate. The values of the blank wells were subtracted from the values of the untreated control and treated cells. The Akt activity% was determined as the relative absorbance of treated versus untreated control cells.

Each structure is given as a SMILES string. Converted amounts (≈) assume the structure as drawn. “And” between values parts separate entries of the source, which are not always exact repeats. Equal values may be shown once. A value given as a limit tells only on which side of the number the result lay.

With `O=C(CSc1nnc2n1N=C(c1ccc(Br)cc1)CS2)c1ccc(Br)cc1` [1-(4-bromophenyl)-2-((6-(4-bromophenyl)-7H-[1,2,4]triazolo[3,4-b][1,3,4]thiadiazine-3-yl)thio)ethanone], in assay [1], the growth was 46.76% and the inhibition is 53.24%. Moreover, in the assay on A549 cells, the growth is recorded as 58.58% and the inhibition was 41.42%.

Regarding `O=C(CSc1nnc2n1N=C(c1ccc(F)cc1)CS2)c1ccc(F)cc1` [1-(4-fluorophenyl)-2-((6-(4-fluorophenyl)-7H-[1,2,4]triazolo[3,4-b][1,3,4]thiadiazine-3-yl)thio)ethanone], in assay [1], the growth is on record as 47.42% and the inhibition was 52.58%.

Consider `CS(=O)(=O)c1ccc(Cc2nnc3n2N=C(c2ccccc2)CS3)cc1` [3-(4-(methylsulfonyl)benzyl)-6-phenyl-7H-[1,2,4]triazolo[3,4-b][1,3,4]thiadiazine], for which the IC50 in assay [2] was 25 µM.

Turning to `Cc1ccc(C2=Nn3c(nnc3-c3ccncc3)SC2)cc1` [3-(pyridine-4-yl)-6-(p-tolyl)-7H-[1,2,4]triazolo[3,4-b][1,3,4]thiadiazine], the inhibition in assay [3] is 72.6%.

Take `CCCCC/C=C\CC[C@H](O)CCCCCCCc1nnc2n1N=C(c1ccccc1)CS2` [3-[(8R,11Z)-8-hydroxyheptadec-11-enyl]-6-phenyl-7H-1,2,4-triazolo[3,4-b]-1,3,4-thiadiazine]: the IC50 in assay [4] was below 8.83 µM.

Regarding `CCCCCC[C@@H](O)C/C=C\CCCCCCCc1nnc2n1N=C(c1ccccc1)CS2` [3-[(8Z,11R)-11-hydroxyheptadec-8-enyl]-6-phenyl-7H-1,2,4-triazolo[3,4-b]-1,3,4-thiadiazine], in assay [4], the IC50 is below 8.83 µM.

For the compound `COc1cccc(C2=Nn3c(nnc3-c3ccncc3)SC2)c1` [6-(3-Methoxyphenyl)-3-(pyridine-4-yl)-7H-[1,2,4]triazolo[3,4-b][1,3,4]thiadiazine], the inhibition in assay [3] is listed as 73.3%.

Turning to `c1ccc(C2=Nn3c(CCc4ccc5c(c4)OCO5)nnc3SC2)cc1` [Compound 1, 3-[2-(1,3-Benzodioxole-5-yl)ethyl]-6-phenyl-7H-[1,2,4]triazolo[3,4-b][1,3,4]thiadiazine], the IC50 is below 3.9 µg/mL in assay [5] and 103 ± 11.5 µg/mL (≈ 284 µM) in assay [6].

`O=[N+]([O-])c1ccc(C2=Nn3c(CCc4ccc5c(c4)OCO5)nnc3SC2)cc1` [Compound 2, 3-[2-(1,3-Benzodioxole-5-yl)ethyl]-6-(4-nitrophenyl)-7H-[1,2,4]triazolo[3,4-b][1,3,4]thiadiazine]: the values for the IC50 in assay [5] and in assay [6] were 3.93 ± 0.06 µg/mL (≈ 9.6 µM) and 380 ± 70.7 µg/mL (≈ 928 µM), respectively.

`N#Cc1ccc(C2=Nn3c(CCc4ccc5c(c4)OCO5)nnc3SC2)cc1` [Compound 3, 3-[2-(1,3-Benzodioxole-5-yl)ethyl]-6-(4-cyanophenyl)-7H-[1,2,4]triazolo[3,4-b] [1,3,4]thiadiazine]: the IC50 in assay [5] and in assay [6] was above 500 µg/mL each time.

As to `Fc1ccc(C2=Nn3c(CCc4ccc5c(c4)OCO5)nnc3SC2)cc1` [Compound 4, 3-[2-(1,3-Benzodioxole-5-yl)ethyl]-6-(4-fluorophenyl)-7H-[1,2,4]triazolo[3,4-b] [1,3,4]thiadiazine], the IC50 in assay [5] was above 500 µg/mL; in assay [6] it was 325 ± 35.4 µg/mL (≈ 850 µM).

Take `Clc1ccc(C2=Nn3c(CCc4ccc5c(c4)OCO5)nnc3SC2)cc1` [Compound 5, 3-[2-(1,3-Benzodioxole-5-yl)ethyl]-6-(4-chlorophenyl)-7H-[1,2,4]triazolo[3,4-b] [1,3,4]thiadiazine]: the results for the IC50 in assay [5] and in assay [6] were below 3.9 µg/mL and above 500 µg/mL, respectively.

Take `Brc1ccc(C2=Nn3c(CCc4ccc5c(c4)OCO5)nnc3SC2)cc1` [Compound 6, 3-[2-(1,3-Benzodioxole-5-yl)ethyl]-6-(4-bromophenyl)-7H-[1,2,4]triazolo[3,4-b] [1,3,4]thiadiazine]: the IC50 in assay [5] is below 3.9 µg/mL; in assay [6], 307 ± 58.6 µg/mL (≈ 692 µM).

With `COc1ccc(C2=Nn3c(CCc4ccc5c(c4)OCO5)nnc3SC2)cc1` [Compound 7, 3-[2-(1,3-Benzodioxole-5-yl)ethyl]-6-(4-methoxyphenyl)-7H-[1,2,4]triazolo[3,4-b] [1,3,4]thiadiazine], the IC50 amounted to 44.3 ± 1.15 µg/mL (≈ 112 µM) in assay [5] and 45.7 ± 5.51 µg/mL (≈ 116 µM) in assay [6].

Consider `Cc1ccc(C2=Nn3c(CCc4ccc5c(c4)OCO5)nnc3SC2)cc1` [Compound 8, 3-[2-(1,3-Benzodioxole-5-yl)ethyl]-6-(4-methylphenyl)-7H-[1,2,4] triazolo [3,4-b] [1,3,4]thiadiazine], for which the IC50 was 14.7 ± 6.43 µg/mL (≈ 38.8 µM) in assay [5] and above 500 µg/mL in assay [6].

As for `c1ccc2cc(C3=Nn4c(CCc5ccc6c(c5)OCO6)nnc4SC3)ccc2c1` [Compound 10, 3-[2-(1,3-Benzodioxole-5-yl)ethyl]-6-(naphthalene-2-yl)-7H-[1,2,4]triazolo [3,4-b][1,3,4]thiadiazine], in assay [5], the “IC50 values (µg/mL) CCDLul9 cell line” value was below 3.90 µg/mL and the IC50 is below 3.9 µg/mL. In addition, in assay [6], the IC50 came to 4.1 ± 0.14 µg/mL (≈ 9.89 µM).

Take `Clc1cccc(C2=Nn3c(CCc4ccc5c(c4)OCO5)nnc3SC2)c1` [Compound 13, 3-[2-(1,3-Benzodioxole-5-yl)ethyl]-6-(3-chlorophenyl)-7H-[1,2,4]triazolo[3,4-b][1,3,4]thiadiazine]: the IC50 in assay [5] and in assay [6] was above 500 µg/mL in each case.

As for `c1csc(-c2ccc(C3=Nn4c(CCc5ccc6c(c5)OCO6)nnc4SC3)cc2)c1` [Compound 15, 3-[2-(1,3-Benzodioxole-5-yl)ethyl] -6-(4-(thiophen-2-yl)phenyl)-7H-[1,2,4] triazolo [3,4-b] [1,3,4]thiadiazine], in assay [5], the “IC50 values (µg/mL) CCDLul9 cell line” value was below 3.90 µg/mL and the IC50 is below 3.9 µg/mL. Further, the IC50 in assay [6] turned out to be 4 ± 0.2 µg/mL (≈ 8.96 µM).

As for `CCn1c(-c2nonc2N)nc2c(C#CC(C)(C)O)ncc(OC[C@H]3CCCNC3)c21` [GSK690693, reference compound], the “Akt Inhibition%” value in the assay on Akt (IC50/2 concentration (9: 2.88; 11: 0.37; 12: 0.40; 14: 1.32; GSK690693: 3.34; Cisplatin: 11.50 µg/mL)) was 60.56±3.04%; in the assay on Akt (IC50/4 concentration (9: 1.44; 11: 0.18; 12: 0.20; 14: 0.66; GSK690693: 1.69; Cisplatin: 5.75 µg/mL)), 59.23±9.77%; in the assay on Akt (IC50 concentration (9: 5.75; 11: 0.73; 12: 0.80; 14: 2.63; GSK690693: 6.75; Cisplatin: 23.00 µg/mL)), 61.67% and 61.67±1.21%. For the same compound, in assay [6], the IC50 turned out to be 6.75 ± 1.06 µg/mL (≈ 15.9 µM).
